Earlier results, collected in patent US20200085832A1, “DEUTERATED ANALOGS OF AN ORGANIC COMPOUND” (Agios Pharmaceuticals, Inc., priority 2019, published 2020).

Assays:
mutant IDH1 (mIDH1) = details: D. Rohle et al. Science 340:626-630 (2013)
mutant IDH2 (mIDH2) = details: D. Rohle et al. Science 340:626-630 (2013)
mIDH1-driven gliomas = details: some model systems
mutant IDH1 = details: biochemical and cellular assays
mutant IDH2 = details: biochemical and cellular assays

SMILES | inhibition of mutant IDH1 (mutant IDH1 (mIDH1)) | inhibition of mutant IDH2 (mutant IDH2 (mIDH2)) | growth of mIDH1-driven gliomas (mIDH1-driven gliomas) | inhibitor of mutant IDH1 protein (mutant IDH1) | inhibitor of mutant IDH2 protein (mutant IDH2)
Cc1ccccc1C(C(=O)NC1CCCCC1)N(C(=O)Cn1ccnc1C)c1cccc(F)c1 (centres unmarked) [AGI-5198] | inhibit mutant IDH1 (mIDH1) | not mutant IDH2 (mIDH2) | repress growth of mIDH1-driven gliomas | – | –
C[C@@H](Nc1nc(N[C@H](C)C(F)(F)F)nc(-c2cccc(Cl)n2)n1)C(F)(F)F [Compound X, 6-(6-chloropyridin-2-yl)-N^2,N^4-bis((R)-1,1,1-trifluoropropan-2-yl)-1,3,5-triazine-2,4-diamine] | – | – | – | inhibitor of mutant IDH1 and IDH2 proteins | inhibitor of mutant IDH1 and IDH2 proteins
